Source: patent US9216968B2, “Heterocyclic derivative and pharmaceutical drug” (NIPPON SHINYAKU CO., LTD., priority 2011, dated 2015)
Structures can show the parent of a compound that is named as a salt.

These molecules were tested against human mPGES-1 (Homo sapiens (Human), UniProt O14684) (assay: mPGES-1 inhibiting activity (microsome fractions, PGE2 by HTRF)). Conditions: microsomes from CHO-K1 cells transfected with human mPGES-1; PGH2 1 μM, 4° C., 60 seconds; read-out: mPGES-1 Inhibition IC50.
human mPGES-1, sequence (O14684 whole entry): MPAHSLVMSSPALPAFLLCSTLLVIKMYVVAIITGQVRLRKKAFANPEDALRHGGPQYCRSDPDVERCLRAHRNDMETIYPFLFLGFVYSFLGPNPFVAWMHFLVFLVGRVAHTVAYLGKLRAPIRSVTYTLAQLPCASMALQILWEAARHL
Type: biochemical
Method: mPGES-1 microsome fractions were prepared from CHO-K1 cells transiently transfected with plasmid encoding the human mPGES-1cDNA. Microsomes were diluted with potassium phosphate buffer containing reduced glutathione (pH7.4), and DMSO containing test compound or DMSO alone was added (such that DMSO final concentration would be 1% in each) and incubated at 4° C. for 20 minutes. Then, the enzymatic reactions were initiated by the addition of PGH2 substrate (final concentration 1 μM) and incubated at 4° C. for 60 seconds. The reaction was terminated by the addition of a citrate solution (final citrate concentration 50 mM) containing ferric chloride (final concentration 1 mg/mL). PGE2 production in the enzyme reaction aliquot was measured using HTRF kit (Cisbio International, catalogue #62P2APEC). The solution free of test compound was used as positive control, and the solution free of test compound and microsome sample was used as negative control. 100% activity was defined as PGE2 production in the positive control minus PGE2 production in negative control. IC50 value was calculated by standard method.
Work on `COCc1nc2c(C(=O)NCc3cccs3)cc(NC(=O)c3ccccc3C(F)(F)F)cc2[nH]1` [Example 223, 2-(Methoxymethyl)-N-(thiophen-2-ylmethyl)-6-({[2-(trifluoromethyl)phenyl]carbonyl}amino)-1H-benzimidazole-4-carboxamide hydrochloride] yielded an IC50 of 68.2 nM. For `COCc1nc2c(C(=O)Nc3nc4ccccc4s3)cc(NC(=O)c3ccccc3C(F)(F)F)cc2[nH]1` [Example 225, N-(1,3-Benzothiazol-2-yl)-2-(methoxymethyl)-6-({[2-(trifluoromethyl)phenyl]carbonyl}amino)-1H-benzimidazole-4-carboxamide hydrochloride], the IC50 was 15.6 nM. In the case of `COCc1nc2c(C(=O)Nc3cccc(Cl)c3C)cc(NC(=O)c3cc(OCC(F)F)ccc3Cl)cc2[nH]1` [Example 248, 6-({[2-Chloro-5-(2,2-difluoroethoxy)phenyl]carbonyl}amino)-N-(3-chloro-2-methylphenyl)-2-(methoxymethyl)-1H-benzimidazole-4-carboxamide hydrochloride], the IC50 is reported as 201 nM. For `COCc1nc2c(C(=O)NCC(C)(C)C)cc(NC(=O)c3ccccc3C(F)(F)F)cc2[nH]1` [Example 226, N-(2,2-Dimethylpropyl)-2-(methoxymethyl)-6-({[2-(trifluoromethyl)phenyl]carbonyl}amino)-1H-benzimidazole-4-carboxamide hydrochloride], the IC50 was 26.9 nM. With `O=C(Nc1cc(C(=O)NCC2(O)CCCCC2)c2nc[nH]c2c1)c1ccccc1C(F)(F)F` [Example 5, N-[(1-Hydroxycyclohexyl)methyl]-6-({[2-(trifluoromethyl)phenyl]carbonyl}amino)-1H-benzimidazole-4-carboxamide] the IC50 was 453 nM. For `COCc1nc2c(C(=O)Nc3ccc4c(c3)S(=O)(=O)C=C4)cc(NC(=O)c3ccccc3C(F)(F)F)cc2[nH]1` [Example 222, N-(1,1-Dioxide-1-benzothiophen-6-yl)-2-(methoxymethyl)-6-({[2-(trifluoromethyl)phenyl]carbonyl}amino)-1H-benzimidazole-4-carboxamide hydrochloride], the IC50 was 661 nM. For `O=C(Nc1cc(C(=O)NCc2ccccc2C(F)(F)F)c2[nH]ncc2c1)c1ccccc1C(F)(F)F` [Example 10, N-[2-(Trifluoromethyl)benzyl]-5-({[2-(trifluoromethyl)phenyl]carbonyl}amino)-1H-indazole-7-carboxamide], the IC50 was 333 nM. In the case of `COCc1nc2c(C(=O)Nc3cccnc3)cc(NC(=O)c3ccccc3C(F)(F)F)cc2[nH]1` [Example 216, 2-(Methoxymethyl)-N-(pyridin-3-yl)-6-({[2-(trifluoromethyl)phenyl]carbonyl}amino)-1H-benzimidazole-4-carboxamide hydrochloride], the IC50 is reported as 204 nM. For `COCc1nc2c(C(=O)Nc3cccc4nsnc34)cc(NC(=O)c3ccccc3C(F)(F)F)cc2[nH]1` [Example 221, N-(2,1,3-Benzothiadiazol-4-yl)-2-(methoxymethyl)-6-({[2-(trifluoromethyl)phenyl]carbonyl}amino)-1H-benzimidazole-4-carboxamide hydrochloride], the IC50 was 2.2 nM. Molecule `O=C(Nc1cc2c(c(C(=O)NCc3ccccc3C(F)(F)F)c1)OCC2)c1ccccc1C(F)(F)F` [Example 6, N-[2-(Trifluoromethyl)benzyl]-5-({[2-(trifluoromethyl)phenyl]carbonyl}amino)-2,3-dihydro-1-benzofuran-7-carboxamide] has an IC50 of 27.4 nM. Molecule `COCc1nc2c(C(=O)Nc3cccc(Cl)c3C)cc(NC(=O)c3cc(OCCCC(F)(F)F)ccc3Cl)cc2[nH]1` [Example 249, N-(3-Chloro-2-methylphenyl)-6-({[2-chloro-5-(4,4,4-trifluorobutoxy)phenyl]carbonyl}amino)-2-(methoxymethyl)-1H-benzimidazole-4-carboxamide hydrochloride] has an IC50 of 404 nM. Work on `COCc1nc2c(C(=O)NCc3ccccc3Cl)cc(NC(=O)c3ccccc3C(F)(F)F)cc2n1C` [Example 91, N-(2-Chlorobenzyl)-2-(methoxymethyl)-1-methyl-6-({[2-(trifluoromethyl)phenyl]carbonyl}amino)-1H-benzimidazole-4-carboxamide] yielded an IC50 of 327 nM.
